Patent publication US20050020594A1, “Substituted pyridazinones” (Pharmacia Corporation, priority 2003, published 2005)

Molecular target: T1, human p38 kinase alpha (Homo sapiens, UniProt Q16539)
T1 construct: made in house; host or cells: E. coli DH10B
Test: p38 alpha kinase assay
Assay type: biochemical
Conditions: in vitro inhibition of activated human p38 kinase alpha; two formats described (PHAS-I/32P-ATP, EGFRP/33P-ATP), format used not stated; values given as ranges
Method: The ability of compounds to inhibit human p38 kinase alpha was evaluated using two in vitro assay methods. In the first method, activated human p38 kinase alpha phosphorylates a biotinylated substrate, PHAS-I (phosphorylated heat and acid stable protein-insulin inducible), in the presence of gamma ^32P-ATP (^32P-ATP). PHAS-I was biotinylated prior to the assay and provides a means of capturing the substrate, which is phosphorylated during the assay. p38 Kinase was activated by MKK6. Compounds were tested in 10 fold serial dilutions over the range of 100 μM to 0.001 μM using 1% DMSO. Each concentration of inhibitor was tested in triplicate. All reactions were carried out in 96 well polypropylene plates. Each reaction well contained 25 mM HEPES pH 7.5, 10 mM magnesium acetate and 50µM unlabeled ATP. Activation of p38 was required to achieve sufficient signal in the assay. Biotinylated PHAS-I was used at 1-2 μg per 50 μl reaction volume, with a final concentration of 1.5 μM. Activated human p38 kinase alpha was used at 1 μg per 50 μl reaction volume representing a final concentration of 0.3 μM. […] The plates were sealed and counted. […] 150 μl of Microscint 40 was then added to each well of the Microlite plate, and the plate was sealed, mixed, and counted.

T1 sequence (Q16539 whole entry): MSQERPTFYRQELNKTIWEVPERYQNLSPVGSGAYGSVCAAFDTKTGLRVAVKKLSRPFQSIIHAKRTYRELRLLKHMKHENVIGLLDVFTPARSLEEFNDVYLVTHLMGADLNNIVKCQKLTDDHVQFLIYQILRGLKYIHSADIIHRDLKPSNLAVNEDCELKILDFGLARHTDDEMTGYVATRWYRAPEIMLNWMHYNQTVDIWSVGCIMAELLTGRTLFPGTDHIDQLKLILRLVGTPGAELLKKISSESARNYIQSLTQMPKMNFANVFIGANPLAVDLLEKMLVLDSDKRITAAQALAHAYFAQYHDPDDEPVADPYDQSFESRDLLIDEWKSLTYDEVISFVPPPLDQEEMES

Row | IC50 [µM] | Compound
1 | 40 to 60 | O=c1cc(OCCc2ccccc2)cnn1-c1c(Cl)cccc1Cl [Compound 48, 2-(2,6-dichlorophenyl)-5-(2-phenylethoxy)pyridazin-3(2H)-one]
2 | 0.1 to 20 | Cc1c(OCCc2ccccc2)cnn(-c2c(Cl)cccc2Cl)c1=O [Compound 49, 2-(2,6-dichlorophenyl)-4-methyl-5-(2-phenylethoxy)pyridazin-3(2H)-one]
